The source of these data is patent publication US20250213639A1 (U.S. NUTRACEUTICALS, INC., d/b/a Valensa International, priority 2021, published 2025).

In one series the test system is DHT. As to conditions: cited from earlier work.
Series [1] concerns men with mild to moderate androgenic alopecia. Conditions: 1 milligram per day, 24 months; cited from earlier work.
The conditions of series [2]: oral, guinea pigs, fur and skin; cited from earlier work.
In another series the target is T1, 5α-Reductase-1 (Homo sapiens, UniProt P18405).
T1 sequence (P18405 1-259): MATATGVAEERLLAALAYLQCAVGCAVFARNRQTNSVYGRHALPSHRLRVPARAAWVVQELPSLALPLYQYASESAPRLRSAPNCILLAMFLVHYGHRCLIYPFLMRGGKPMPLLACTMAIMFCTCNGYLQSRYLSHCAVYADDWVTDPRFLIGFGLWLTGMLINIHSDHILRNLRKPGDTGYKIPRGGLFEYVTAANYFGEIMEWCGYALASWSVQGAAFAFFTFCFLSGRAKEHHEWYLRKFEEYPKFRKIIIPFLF
The experiment in a line: 5α-reductase inhibition by constituents of saw palmetto extract (FIGS. 2, 3), Type 1. It counts as biochemical.

In a further series the target is T2, 5α-Reductase-2 (Homo sapiens, UniProt P31213).
T2 sequence (P31213 1-254): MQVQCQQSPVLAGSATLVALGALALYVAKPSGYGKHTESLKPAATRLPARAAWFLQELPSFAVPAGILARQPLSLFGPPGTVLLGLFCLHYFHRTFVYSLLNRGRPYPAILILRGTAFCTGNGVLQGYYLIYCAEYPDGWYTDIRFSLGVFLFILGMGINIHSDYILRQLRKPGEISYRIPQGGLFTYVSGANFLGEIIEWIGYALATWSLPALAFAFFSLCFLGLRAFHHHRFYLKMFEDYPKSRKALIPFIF
The experiment in a line: 5α-reductase inhibition by constituents of saw palmetto extract (FIGS. 2, 3), Type 2. It counts as biochemical.

Another series relates to normal mice. Conditions: after about 20 days, normal shaved mice; cited from earlier work.

Turning to `C[C@]12C=CC(=O)N[C@@H]1CC[C@@H]1[C@@H]2CC[C@]2(C)[C@@H](C(=O)Nc3cc(C(F)(F)F)ccc3C(F)(F)F)CC[C@@H]12` [Dutasteride], in the series with DHT (in vivo), the “reduction of DHT levels in the entire body” value is recorded as “more than 99%”.
With `CC(C)(C)NC(=O)[C@H]1CC[C@H]2[C@@H]3CC[C@H]4NC(=O)C=C[C@]4(C)[C@H]3CC[C@]12C` [finasteride], in the series on DHT (in some formulations), the “decrease of the production of DHT” value is listed as “about 70%”. Also, the “men who noted an improvement” value in series [1] is 68%.
Regarding `CC/C=C\C/C=C\C/C=C\CCCCCCCC(=O)O` [Linolenic acid], the “share of that lipid found in the free fatty acid form” value in series [2] is reported as “Over 70%”.
For `CCCCCCCC/C=C\CCCCCCCC(=O)O` [oleic acid], at 5α-Reductase-1, the “effectiveness for 5α-Reductase-1” value is “especially effective”. Also, on 5α-Reductase-2, the “effectiveness for 5α-Reductase-2” value is listed as “not as much”.
With `CCCCC/C=C\C/C=C\CCCCCCCC(=O)O` [linoleic acid], in the series on normal mice, the hair growth entry is reported as “about 100%”. In addition, on 5α-Reductase-1, the “effectiveness for 5α-Reductase-1” value is “beneficial for both”.
